Laboratory results from US10738028B2, “Spiro three-membered ring, spiro five-membered ring peptide deformylase inhibitor and use thereof in antibacteria and anti-tumor” (priority 2016, dated 2020).

Columns and labels:
Format in all cases: cell-based
[1] = test system: HCT-116 colorectal cancer cell line; assay: CCK-8 proliferation inhibition; conditions: Homo sapiens, HCT-116, 72 h, concentration of 30 μM; 72 hours; CCK-8; read-out: HCT116 inhibition rate/%
Summary of the method: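 Proliferation over 72 hours of compound treatment was measured with CCK-8 against a 1‰ DMSO control.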

[2] = test system: Streptococcus pneoumoniae (SPN); assay: MIC, two-fold agar dilution (CLSI), clinical isolates
Summary of the method: (§1)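 CLSI two-fold agar dilution; MIC of test samples read per tested strain.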

[3] = test system: methicillin-sensitive Staphylococcus epidermidis (MSSE); assay: as above
Summary of the method: as §1

[4] = test system: Enterococcus faecium (EFM); assay: as above
Summary of the method: as §1

[5] = test system: methicillin-sensitive Staphylococcus aureus (MSSA); assay: as above
Summary of the method: as §1

[6] = test system: Enterococcus faecalis (EFA); assay: as above
Summary of the method: as §1

[7] = test system: Escherichia coli (including ESBLs, non-ESBLs); assay: as above
Summary of the method: as §1

[8] = test system: methicillin-resistant Staphylococcus epidermidis (MRSE); assay: as above
Summary of the method: as §1

[9] = test system: methicillin-resistant Staphylococcus aureus (MRSA); assay: as above
Summary of the method: as §1

[10] = test system: Moraxella catarrhalis (BCA); assay: as above
Summary of the method: as §1

O=C(C[C@@H](CC1CCCC1)C(=O)N1CC2(CC2)C[C@H]1C(=O)Nc1nncs1)NO [Example 74]
0.5 µg/mL: Anti-bacterial activity (MIC), strain MRSE 15-1 ([8]; clinical isolate MRSE 15-1)
16 µg/mL: Anti-bacterial activity (MIC) ([4]; strain EFM 15-1) | Anti-bacterial activity (MIC) ([6]; strain EFA 15-3) | Anti-bacterial activity (MIC) ([10]; strain BCA 14-5)
32 µg/mL: Anti-bacterial activity (MIC) ([2]; strain SPN 16-2) | Anti-bacterial activity (MIC) ([4]; strain EFM 15-2) | Anti-bacterial activity (MIC) ([4]; strain EFM 15-4) | Anti-bacterial activity (MIC) ([4]; strain EFM 15-6) | Anti-bacterial activity (MIC), strain ECO+ 15-1 ([7]; clinical isolate ECO+ 15-1)
2 µg/mL: Anti-bacterial activity (MIC), strain MSSA 15-5 ([5]; clinical isolate MSSA 15-5)
1 µg/mL: Anti-bacterial activity (MIC), strain MSSE 15-3 ([3]; clinical isolate MSSE 15-3) | Anti-bacterial activity (MIC), strain MSSE 15-4 ([3]; clinical isolate MSSE 15-4) | Anti-bacterial activity (MIC), strain MSSE 15-5 ([3]; clinical isolate MSSE 15-5) | Anti-bacterial activity (MIC), strain MSSE 15-6 ([3]; clinical isolate MSSE 15-6) | Anti-bacterial activity (MIC), strain MRSE 15-2 ([8]; clinical isolate MRSE 15-2) | Anti-bacterial activity (MIC), strain MRSE 15-3 ([8]; clinical isolate MRSE 15-3)
5 µg/mL: Anti-bacterial activity (MIC), strain MRSA 15-3 ([9]; clinical isolate MRSA 15-3)
8 µg/mL: Anti-bacterial activity (MIC), strain MRSA 15-2 ([9]; clinical isolate MRSA 15-2) | Anti-bacterial activity (MIC), strain MRSA 15-4 ([9]; clinical isolate MRSA 15-4)
1%: inhibition at 30 µM [1]
> 32 µg/mL: Anti-bacterial activity (MIC) ([6]; strain EFA 15-1) | Anti-bacterial activity (MIC) ([6]; strain EFA 15-2) | Anti-bacterial activity (MIC) ([6]; strain EFA 15-4) | Anti-bacterial activity (MIC) ([6]; strain EFA 15-5) | Anti-bacterial activity (MIC) ([6]; strain EFA 15-6) | Anti-bacterial activity (MIC) ([6]; strain EFA 15-9) | Anti-bacterial activity (MIC), strain ECO+ 15-2 ([7]; clinical isolate ECO+ 15-2) | Anti-bacterial activity (MIC), strain ECO+ 15-3 ([7]; clinical isolate ECO+ 15-3) | Anti-bacterial activity (MIC), strain ECO+ 15-4 ([7]; clinical isolate ECO+ 15-4) | Anti-bacterial activity (MIC), strain ECO− 15-1 ([7]; clinical isolate ECO− 15-1) | Anti-bacterial activity (MIC), strain ECO− 15-2 ([7]; clinical isolate ECO− 15-2) | Anti-bacterial activity (MIC), strain ECO− 15-3 ([7]; clinical isolate ECO− 15-3) | Anti-bacterial activity (MIC), strain ECO− 15-4 ([7]; clinical isolate ECO− 15-4) | Anti-bacterial activity (MIC) ([10]; strain BCA 14-1) | Anti-bacterial activity (MIC) ([10]; strain BCA 14-4) | Anti-bacterial activity (MIC) ([10]; strain BCA 14-6) | Anti-bacterial activity (MIC) ([10]; strain BCA 14-7) | Anti-bacterial activity (MIC) ([10]; strain BCA 14-8) | Anti-bacterial activity (MIC) ([10]; strain BCA 14-10)
4 µg/mL: Anti-bacterial activity (MIC) ([2]; strain SPN 16-4) | Anti-bacterial activity (MIC) ([4]; strain EFM 15-3) | Anti-bacterial activity (MIC) ([4]; strain EFM 15-5) | Anti-bacterial activity (MIC), strain MSSA 15-3 ([5]; clinical isolate MSSA 15-3) | Anti-bacterial activity (MIC), strain MSSA 15-4 ([5]; clinical isolate MSSA 15-4) | Anti-bacterial activity (MIC), strain MSSA 15-6 ([5]; clinical isolate MSSA 15-6) | Anti-bacterial activity (MIC), strain MRSE 15-7 ([8]; clinical isolate MRSE 15-7) | Anti-bacterial activity (MIC), strain MRSA 15-1 ([9]; clinical isolate MRSA 15-1)

CCCC[C@H](CC(=O)NO)C(=O)N1CC2(CCCC2)C[C@H]1C(=O)Nc1cc(C)on1 [Example 80, (S)-2-((R)-2-(2-(hydroxyamino)-2-oxoethyl)hexanoyl)-N-(5-methylisoxazol-3-yl)-2-spiro[4.4]nonane-3-carboxamide]
4 µg/mL: Anti-bacterial activity (MIC) ([2]; strain SPN 16-4) | Anti-bacterial activity (MIC) ([4]; strain EFM 15-2) | Anti-bacterial activity (MIC) ([4]; strain EFM 15-4) | Anti-bacterial activity (MIC) ([10]; strain BCA 14-7) | Anti-bacterial activity (MIC) ([10]; strain BCA 14-10)
8 µg/mL: Anti-bacterial activity (MIC) ([2]; strain SPN 16-2) | Anti-bacterial activity (MIC) ([4]; strain EFM 15-1) | Anti-bacterial activity (MIC) ([4]; strain EFM 15-3) | Anti-bacterial activity (MIC) ([4]; strain EFM 15-6) | Anti-bacterial activity (MIC) ([6]; strain EFA 15-3) | Anti-bacterial activity (MIC) ([10]; strain BCA 14-1) | Anti-bacterial activity (MIC) ([10]; strain BCA 14-4) | Anti-bacterial activity (MIC) ([10]; strain BCA 14-6) | Anti-bacterial activity (MIC) ([10]; strain BCA 14-8)
0.5 µg/mL: Anti-bacterial activity (MIC) ([5]; strain MSSA 15-5) | Anti-bacterial activity (MIC) ([8]; strain MRSE 15-2) | Anti-bacterial activity (MIC) ([8]; strain MRSE 15-3)
1 µg/mL: Anti-bacterial activity (MIC) ([3]; strain MSSE 15-3) | Anti-bacterial activity (MIC) ([5]; strain MSSA 15-4) | Anti-bacterial activity (MIC) ([5]; strain MSSA 15-6) | Anti-bacterial activity (MIC) ([9]; strain MRSA 15-1) | Anti-bacterial activity (MIC) ([9]; strain MRSA 15-3)
2 µg/mL: Anti-bacterial activity (MIC) ([4]; strain EFM 15-5) | Anti-bacterial activity (MIC) ([5]; strain MSSA 15-3) | Anti-bacterial activity (MIC) ([8]; strain MRSE 15-7) | Anti-bacterial activity (MIC) ([9]; strain MRSA 15-2) | Anti-bacterial activity (MIC) ([9]; strain MRSA 15-4) | Anti-bacterial activity (MIC) ([10]; strain BCA 14-5)
16 µg/mL: Anti-bacterial activity (MIC) ([6]; strain EFA 15-1) | Anti-bacterial activity (MIC) ([7]; strain ECO+ 15-2)
11%: inhibition at 30 µM [1]
> 16 µg/mL: Anti-bacterial activity (MIC) ([6]; strain EFA 15-2) | Anti-bacterial activity (MIC) ([6]; strain EFA 15-4) | Anti-bacterial activity (MIC) ([6]; strain EFA 15-5) | Anti-bacterial activity (MIC) ([6]; strain EFA 15-6) | Anti-bacterial activity (MIC) ([6]; strain EFA 15-9) | Anti-bacterial activity (MIC) ([7]; strain ECO+ 15-1) | Anti-bacterial activity (MIC) ([7]; strain ECO+ 15-3) | Anti-bacterial activity (MIC) ([7]; strain ECO+ 15-4) | Anti-bacterial activity (MIC) ([7]; strain ECO− 15-1) | Anti-bacterial activity (MIC) ([7]; strain ECO− 15-2) | Anti-bacterial activity (MIC) ([7]; strain ECO− 15-3) | Anti-bacterial activity (MIC) ([7]; strain ECO− 15-4)
0.25 µg/mL: Anti-bacterial activity (MIC) ([3]; strain MSSE 15-4) | Anti-bacterial activity (MIC) ([3]; strain MSSE 15-5) | Anti-bacterial activity (MIC) ([3]; strain MSSE 15-6) | Anti-bacterial activity (MIC) ([8]; strain MRSE 15-1)
